The assay has as its target T1, Neutral endopeptidase (neprilysin) (Homo sapiens, UniProt P08473).
T1 construct: purchased; host or cells: CHO cells
Kind of assay: Metalloprotease selectivity panel (Eurofins Panlabs): neprilysin. It is filed as biochemical. As to conditions: assay validation, read-out: IC50 of reference inhibitor. The text has this:
Supplementary Table S1. […] Reference compounds were used to validate the assay for inhibition.

Molecules are shown by their SMILES. pIC50: −log10 of the molar value.

Among the data in PMC13100289 (The Journal of Biological Chemistry, 2026) are IC50 values, retold here.

As a reminder, the pIC50 is the negative decadic logarithm of the IC50, by convention in mol/L.

T1 sequence (P08473 whole entry): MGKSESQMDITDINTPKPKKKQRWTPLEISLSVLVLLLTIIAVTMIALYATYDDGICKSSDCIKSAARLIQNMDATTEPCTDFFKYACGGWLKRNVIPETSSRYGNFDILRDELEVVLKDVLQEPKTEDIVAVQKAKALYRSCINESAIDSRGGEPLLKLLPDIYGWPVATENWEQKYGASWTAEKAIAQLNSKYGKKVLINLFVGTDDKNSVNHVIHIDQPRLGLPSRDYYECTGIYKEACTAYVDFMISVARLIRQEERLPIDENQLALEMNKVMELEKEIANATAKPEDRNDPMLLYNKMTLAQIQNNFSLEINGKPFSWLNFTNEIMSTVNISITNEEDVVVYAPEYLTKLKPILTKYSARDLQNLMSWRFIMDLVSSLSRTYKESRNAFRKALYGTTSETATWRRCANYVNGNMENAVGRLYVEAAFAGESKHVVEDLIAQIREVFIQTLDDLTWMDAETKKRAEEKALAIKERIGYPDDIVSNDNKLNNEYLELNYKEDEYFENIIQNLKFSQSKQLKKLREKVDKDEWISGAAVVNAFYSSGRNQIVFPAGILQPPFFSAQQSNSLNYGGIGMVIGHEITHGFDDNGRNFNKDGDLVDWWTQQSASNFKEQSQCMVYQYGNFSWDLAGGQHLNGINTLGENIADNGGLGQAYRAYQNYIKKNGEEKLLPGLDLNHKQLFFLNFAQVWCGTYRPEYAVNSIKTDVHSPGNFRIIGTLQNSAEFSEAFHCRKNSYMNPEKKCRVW

In the case of `CC(C)C[C@H](NP(=O)(O)O[C@@H]1O[C@@H](C)[C@H](O)[C@@H](O)[C@H]1O)C(=O)N[C@@H](Cc1c[nH]c2ccccc12)C(=O)O` [Phosphoramidon], the pIC50 was 8.70.
